Several values for one entry are separate records, joined by “and”; a condition that tells them apart may be missing. Identical values can stand only once. Like-named read-outs stand apart in the source and are kept apart here. Residues, ends and D or L forms follow the SMILES beside them. *: point of attachment. Cbz = O=C(OCc1ccccc1)*
Experiments:
[1] = tested on: cervical cancer cell (HeLa); test: Cell viability (calcein-AM / ethidium homodimer-1), HeLa; conditions: 24 h
Protocol: (§1) Strains of cervical cancer cell (HeLa), kidney cancer cell (Caki-1), brain tumor cell (T98G), breast cancer cell (MDA-MB 435S), and colon cancer cell (DLD-1), multiple myeloma cell (RPMI-8226), and a strain of normal breast epithelial cell (MCF-10A) were available from ATCC (American Type Culture Collection, USA). The strains of cervical cancer cell (HeLa), kidney cancer cell (Caki-1), brain tumor cell (T98G), breast cancer cell (MDA-MB 435S), and colon cancer cell (DLD-1) were cultured by using a DMEM medium including 10% fetal bovine serum (FBS), 2 mM of L-glutamin, 100 i.u./ml of penicillin, and […] of streptomycin for the culture and maintenance; multiple myeloma cell (RPMI-8226) was cultured by using a RPMI1640 medium including 10% FBS, 100 i.u./ml of penicillin, and […] of streptomycin; and the strain of normal breast epithelial cell (MCF-10A) was cultured by using a mammary epithelial growth medium (MEGM) including a bovine pituitary extract, insulin, human epidermal growth factor, hydrocortisone, and antibiotics, and the culture conditions included 37° C. and 5% CO2 in an incubator.
(§2) Then, the cells were stained by using 2 μM calcein-AM and 4 μM ethidium homodimer-1, and cell viability was measured by using a fluorescent microscope (Axiovert 200M, available from Carl Zeiss, Jena, Germany).

[2] = tested on: kidney cancer cell (Caki-1); test: Cell viability (calcein-AM / ethidium homodimer-1), Caki-1
Protocol: as §1, §2

[3] = tested on: breast cancer cell (MDA-MB 435S); test: Cell viability (calcein-AM / ethidium homodimer-1), MDA-MB 435S; conditions: 24 h
Protocol: as §1, §2

[4] = tested on: brain tumor cell (T98G); test: Cell viability (calcein-AM / ethidium homodimer-1), T98G; conditions: 24 h
Protocol: as §1, §2

[5] = tested on: multiple myeloma cell (RPMI-8226); test: Cell viability (calcein-AM / ethidium homodimer-1), RPMI-8226; conditions: for Cell viability: RPMI-8226, 24 h
Protocol: as §1, §2

[6] = tested on: colon cancer cell (DLD-1); test: Cell viability (calcein-AM / ethidium homodimer-1), DLD-1; conditions: for cytotoxicity at 1 µM: read-out: cell viability decreased
Protocol: as §1, §2

[7] = in vitro; conditions: human
Protocol: as §1, §2

[8] = tested on: normal breast epithelial cell (MCF-10A); test: Cell viability (calcein-AM / ethidium homodimer-1), MCF-10A; conditions: MCF-10A, 24 h
Protocol: as §1, §2

[9] = Homo sapiens, read-out: Cell viability
[10] = Homo sapiens, read-out: cell viability decreased
[11] = Homo sapiens, CAKI-1, 24 h, read-out: Cell viability
[12] = Homo sapiens, CAKI-1, 24 h, read-out: cell viability decreased
[13] = Homo sapiens, MDA-MB-435S, read-out: Cell viability
[14] = Homo sapiens, RPMI-8226, 24 h, read-out: Cell viability
[15] = Homo sapiens, DLD-1, 24 h, read-out: Cell viability
[16] = Homo sapiens, MDA-MB-435S, read-out: cell viability decreased

SMILES: CC(C)C[C@H](NC(=O)[C@H](Cc1ccccc1)NC(=O)c1cnccn1)B(O)O [Bortezomib, N-(2-pyrazine)carbonyl-L-phenylalanine-L-leucine boronic acid]
- viability at 0.02 µM [1, 9]: 100%
- viability at 0.04 µM [1, 9]: 90.8%
- cytotoxicity at 0.04 µM [1, 10]: ~10%
- viability at 0.01 µM [2, 11]: 100%
- viability at 0.02 µM [2, 11]: 78%
- cytotoxicity at 0.02 µM [2, 12]: ~22%
- viability at 0.0075 µM [3, 13]: 100%
- viability at 0.015 µM [3, 13]: 91%
- cancer cell toxicity ([3]; MDA-MB 435S, bortezomib alone up to 15 nM): did not induce cancer cell toxicity
- viability at 0.005 µM [4, 9]: 99.7%
- viability at 0.01 µM [4, 9]: 89.7%
- viability at 0.001 µM [5, 14]: 100%
- viability at 0.002 µM [5, 14]: 81.7%
- viability at 0.04 µM [6, 15]: 99.7%
- viability at 0.06 µM [6, 15]: 95%
- viability at 24 h, 15 nM [7]: 98.8%
- viability at 24 h, 30 nM [7]: 94.6%

SMILES: CC(C)C[C@H](NC(=O)[C@H](CCc1ccccc1)NC(=O)CN1CCOCC1)C(=O)N[C@@H](Cc1ccccc1)C(=O)N[C@@H](CC(C)C)C(=O)[C@@]1(C)CO1 [Carfilzomib]
- viability at 0.05 µM [1, 9]: 90%
- viability at 0.1 µM [1, 9]: 89.8%
- cytotoxicity at 0.1 µM [1, 10]: ~10%
- viability at 0.05 µM [2, 11]: 95.6%
- viability at 0.1 µM [2, 11]: 95.2%
- viability at 0.025 µM [3, 13]: 87.1%
- viability at 0.05 µM [3, 13]: 84.4%
- cytotoxicity at 0.05 µM [3, 16]: ~15%
- viability at 0.02 µM [4, 9]: 100%
- viability at 0.04 µM [4, 9]: 93%
- viability at 0.005 µM [5, 14]: 95.8%
- viability at 0.01 µM [5, 14]: 63.4%
- viability at 0.1 µM [6, 15]: 98.2%
- viability at 0.2 µM [6, 15]: 94.7%
- viability at 24 h, 50 nM [7]: 99.5%
- viability at 24 h, 100 nM [7]: 98.1%

SMILES: CC1=C(O)C(=O)C=C2C1=CC=C1[C@@]2(C)CC[C@@]2(C)[C@@H]3C[C@](C)(C(=O)O)CC[C@]3(C)CC[C@]12C [Celastrol]
- viability at 0.5 µM ([1]; Homo sapiens, read-out: Cell viability, HeLa, celastrol 0.5 μM alone): 100%
- viability at 1 µM ([1]; Homo sapiens, read-out: Cell viability, HeLa, celastrol 1 μM alone): 88.4%
- cytotoxicity at 1 µM [1, 10]: ~11%
- viability at 1 µM [2, 11]: 100%
- viability at 2 µM [2, 11]: 69.6%
- cytotoxicity at 2 µM [2, 12]: ~30%
- viability at 0.25 µM [3, 13]: 100%
- viability at 0.5 µM [3, 13]: 92.5%
- cytotoxicity at 0.5 µM ([3]; Homo sapiens, MDA-MB-435S, read-out: cell viability decreased, MDA-MB 435S, celastrol alone 0.5 μM): ~7%
- viability at 1 µM ([4]; Homo sapiens, read-out: Cell viability, T98G, celastrol 1 μM alone): 100%
- viability at 2 µM ([4]; Homo sapiens, read-out: Cell viability, T98G, celastrol 2 μM alone): 91.3%
- cytotoxicity at 2 µM [4, 10]: ~9%
- viability at 0.05 µM [5, 14]: 90.7%
- viability at 0.1 µM [5, 14]: 69%
- viability at 0.5 µM [6, 15]: 90.5%
- viability at 1 µM [6, 15]: 88.7%
- cytotoxicity at 1 µM ([6]; Homo sapiens, DLD-1, 24 h): ~11%
- viability at 24 h, 0.25 μM ([7]; Cell viability, MCF-10A, celastrol 0.25 μM alone, 24 h): 98.9%
- viability at 24 h, 0.5 μM ([7]; Cell viability, MCF-10A, celastrol 0.5 μM alone, 24 h): 95.9%

SMILES: COc1cc(/C=C/C(=O)CC(=O)/C=C/c2ccc(O)c(OC)c2)ccc1O [Curcumin]
- viability at 10 µM [1, 9]: 100%
- viability at 20 µM [1, 9]: 91.3%
- cytotoxicity at 20 µM [1, 10]: ~9%
- viability at 15 µM [2, 11]: 78.5%
- viability at 30 µM [2, 11]: 68.2%
- cytotoxicity at 30 µM [2, 12]: ~32%
- viability at 10 µM [3, 13]: 70.7%
- viability at 20 µM [3, 13]: 58.8%
- cytotoxicity at 20 µM [3, 16]: ~41%
- viability at 10 µM [4, 9]: 99.7%
- viability at 20 µM [4, 9]: 96.5%
- viability at 10 µM [5, 14]: 93.6%
- viability at 20 µM [5, 14]: 61.9%
- viability at 20 µM [6, 15]: 96.7%
- viability at 30 µM [6, 15]: 89%
- viability at 24 h, 10 μM [7]: 97.7%
- viability at 24 h, 20 μM [7]: 95.9%

SMILES: CC[C@H](C)[C@H](NC(=O)[C@H]([C@@H](C)CC)N(C)C(C)=O)C(=O)N[C@H](C(=O)N[C@@H](CC(C)C)C(=O)[C@@]1(C)CO1)[C@@H](C)O [Epoxomicin]
- Cell viability ([1]; epoxomicin 10 nM alone): 100
- Cell viability ([1]; epoxomicin 20 nM alone): 87.73
- cell viability decreased ([1]; epoxomicin alone 20 nM): about 12%
- Cell viability ([2]; Caki-1, epoxomicin 20 nM alone, 24 h): 100
- cell viability decreased ([2]; Caki-1, epoxomicin alone 40 nM, 24 h): about 35%
- cancer cell toxicity ([2]; Caki-1, epoxomicin alone up to 20 nM, 24 h): did not induce cancer cell toxicity
- cell viability decreased ([3]; MDA-MB 435S, epoxomicin alone 15 nM): about 18%
- Cell viability ([4]; epoxomicin 5 nM alone): 95.66
- Cell viability ([4]; epoxomicin 10 nM alone): 79.79
- Cell viability ([5]; epoxomicin 2.5 nM alone): 100
- Cell viability ([5]; epoxomicin 5 nM alone): 92.72
- Cell viability ([6]; DLD-1, epoxomicin 20 nM alone, 24 h): 99.70
- Cell viability ([8]; epoxomicin 10 nM alone): 97.62
- Cell viability ([8]; epoxomicin 20 nM alone): 94.36

SMILES: CN(C)C(=O)C(CCN1CCC(O)(c2ccc(Cl)cc2)CC1)(c1ccccc1)c1ccccc1 [Loperamide]
- viability at 20 µM ([1]; Homo sapiens, read-out: Cell viability, HeLa, loperamide 20 μM alone): 99.7%
- viability at 40 µM ([1]; Homo sapiens, read-out: Cell viability, HeLa, loperamide 40 μM alone): 75.1%
- cytotoxicity at 40 µM [1, 10]: ~25%
- Cell viability ([1]; loperamide 20 μM alone): 99.81
- viability at 20 µM [2, 11]: 100%
- viability at 40 µM [2, 11]: 65.1%
- cytotoxicity at 40 µM [2, 12]: ~35%
- viability at 10 µM [3, 13]: 100%
- viability at 20 µM [3, 13]: 78%
- cytotoxicity at 20 µM ([3]; Homo sapiens, MDA-MB-435S, read-out: cell viability decreased, MDA-MB 435S, loperamide alone 20 μM): ~22%
- viability at 10 µM ([4]; Homo sapiens, read-out: Cell viability, T98G, loperamide 10 μM alone): 100%
- viability at 20 µM ([4]; Homo sapiens, read-out: Cell viability, T98G, loperamide 20 μM alone): 99%
- cytotoxicity at 20 µM [4, 10]: ~10%
- Cell viability ([4]; loperamide 10 μM alone): 94.43
- cancer cell toxicity ([4]; loperamide alone up to 20 μM): did not exhibit significant cancer cell toxicity
- viability at 5 µM [5, 14]: 98.6%
- viability at 10 µM [5, 14]: 89.4%
- viability at 10 µM [6, 15]: 100%
- viability at 20 µM [6, 15]: 100%
- viability at 24 h, 10 μM ([7]; Cell viability, MCF-10A, loperamide 10 μM alone, 24 h): 97.7%
- viability at 24 h, 20 μM ([7]; Cell viability, MCF-10A, loperamide 20 μM alone, 24 h): 94.6%
- Cell viability ([8]; loperamide 10 μM alone): 95.21 and 100.29 and 95.11
- Cell viability ([8]; loperamide 20 μM alone): 99.25 and 94.65 and 100.37

SMILES: CC(C)C[C@@H](C=O)NC(=O)[C@H](CC(C)C)NC(=O)[C@H](CC(C)C)NC(=O)OCc1ccccc1 [MG132] (Cbz-Leu-Leu-Leu-aldehyde)
- viability at 0.5 µM [1, 9]: 100%
- viability at 1 µM [1, 9]: 100%
- cell toxicity ([1]; MG132 alone up to 1 μM): did not exhibit cell toxicity
- viability at 0.5 µM [2, 11]: 100%
- viability at 1 µM [2, 11]: 89.3%
- cytotoxicity at 1 µM [2, 12]: ~10%
- viability at 0.25 µM [3, 13]: 100%
- viability at 0.5 µM [3, 13]: 93%
- cancer cell toxicity ([3]; MDA-MB 435S, MG132 alone up to 0.5 μM): did not exhibit significant cancer cell toxicity
- viability at 0.125 µM [4, 9]: 99.7%
- viability at 0.25 µM [4, 9]: 96.5%
- cancer cell toxicity ([4]; MG132 up to 0.25 μM): did not exhibit significant cancer cell toxicity
- viability at 0.1 µM [5, 14]: 100%
- viability at 0.2 µM [5, 14]: 99.1%
- viability at 0.5 µM [6, 15]: 91.7%
- viability at 1 µM [6, 15]: 81.3%
- cytotoxicity at 1 µM ([6]; Homo sapiens, DLD-1, 24 h): ~19%
- viability at 24 h, 0.25 μM [7]: 95.2%
- viability at 24 h, 0.5 μM [7]: 92.9%

SMILES: CC(C)C[C@H](NC(=O)CNC(=O)c1cc(Cl)ccc1Cl)B1OC(=O)C(CC(=O)O)(CC(=O)O)O1 [MLN9708]
- viability at 0.1 µM [1, 9]: 100%
- viability at 0.2 µM [1, 9]: 97.8%
- viability at 0.1 µM [2, 11]: 83.3%
- viability at 0.2 µM [2, 11]: 75.7%
- cytotoxicity at 0.2 µM [2, 12]: ~25%
- viability at 0.1 µM [3, 13]: 97.5%
- viability at 0.2 µM [3, 13]: 93.3%
- cytotoxicity at 0.2 µM [3, 16]: ~10%
- viability at 0.05 µM [4, 9]: 92%
- viability at 0.1 µM [4, 9]: 84.7%
- viability at 0.02 µM [5, 14]: 100%
- viability at 0.04 µM [5, 14]: 80.8%
- viability at 0.1 µM [6, 15]: 98.2%
- viability at 0.2 µM [6, 15]: 95.2%
- viability at 24 h, 50 nM [7]: 98%
- viability at 24 h, 100 nM [7]: 92.3%
